{"source": "patent US8551960B2", "about": "“Uses of D-mannopyranose derivatives activating angiogenesis” (Centre National de la Recherche Scientifique, priority 2008, dated 2013)"}
{"tested_on": "chick embryo chorioallantoic membrane (CAM)", "experiment": "chick embryo chorioallantoic membrane (CAM) angiogenesis study", "format": "in vivo, chick (Leghorn white breed)", "details": "nitrocellulose filter disk soaked with 20 μl of 6 mg/ml in PBS placed on CAM on 7th day; observed on 12th day; estimated visually; FIG. 1", "description": "This study was conducted on chick embryos according to the method described by Ribatti D. et al., Nat. Protoc., 2006, 1(1), 85-91 with some minor modifications.\nThis study was conducted on chick embryo chorioallantoic membrane (CAM). The CAM is an extraembryonic membrane formed on the 4th day of incubation by fusion of the chorion and allantois. It enables gas exchanges to take place between the chick embryo and the extraembryonic environment until birth. This CAM is composed of a very thick capillary network which forms a continuous surface in direct contact with the shell. Rapid capillary proliferation of this membrane continues until the 11th day; the mitotic index then decreases rapidly and the vascular system reaches its final arrangement on the 18th day, just before birth (hatching on the 21st day).\nFertilized chicken eggs of the Leghorn white breed were placed in an incubator at the start of embryogenesis, where they were kept under constant humidity at a temperature of 38° C. On the second day of incubation, a window was made in the shell after removing 2 to 3 ml of albumin in order to detach the CAM from the shell. The window was then sealed with adhesive tape and the egg was put back in the incubator to continue its development until the day of the experiment. On the 7th day, pieces of inert synthetic polymers (nitrocellulose filter disks 0.4 cm in diameter) were soaked with 20 μl of each of the solutions of the test compounds (6 mg/ml in PBS) and were then positioned on the CAM. The effect of the test substances on angiogenesis was then observed on the 12th day and the quantitative evaluation of the pro- or antiangiogenic response was estimated visually."}
{"molecule": "COC1O[C@H](CCP(=O)(O)O)[C@@H](O)[C@H](O)[C@@H]1O", "note": "(stereo partly drawn) [Compound I-4, methyl 7-phosphonato-6,7-dideoxy-D-manno-heptopyranoside]", "effect on vascularization of the chick embryos (pro- or antiangiogenic response)": "activating effect on vascularization"}
{"molecule": "CO[C@H]1O[C@H](CN=[N+]=[N-])[C@@H](O)[C@H](O)[C@@H]1O", "note": "[Compound I-2, Methyl 6-Azido-6-Deoxy-α-D-Mannopyranoside]", "effect on vascularization of the chick embryos (pro- or antiangiogenic response)": "activating effect on vascularization"}
{"molecule": "COC1O[C@H](CC(C(=O)O)C(=O)O)[C@@H](O)[C@H](O)[C@@H]1O", "note": "(stereo partly drawn) [DM3, methyl 6-deoxy-6-malonate-D-mannopyranoside]", "effect on vascularization of the chick embryos (pro- or antiangiogenic response)": "inhibitory effect on vascularization"}
{"molecule": "CO[C@H]1O[C@H](CCN)[C@@H](O)[C@H](O)[C@@H]1O", "note": "[Compound I-1, Methyl 7-amino-6,7-dideoxy-α-D-manno-heptopyranoside]", "effect on vascularization of the chick embryos (pro- or antiangiogenic response)": "activating effect on vascularization"}
{"molecule": "COC1O[C@H](CC(=O)O)[C@@H](O)[C@H](O)[C@@H]1O", "note": "(stereo partly drawn) [DM4, (methyl 6,7-dideoxy-D-manno-heptopyranoside)uronic acid]", "effect on vascularization of the chick embryos (pro- or antiangiogenic response)": "inhibitory effect on vascularization"}
{"molecule": "methyl 6,7-dideoxy-7-sulfonato-D-manno-heptopyranoside [DM2]", "effect on vascularization of the chick embryos (pro- or antiangiogenic response)": "inhibitory effect on vascularization"}
{"molecule": "COC1O[C@H](COP(=O)([O-])[O-])[C@@H](O)[C@H](O)[C@@H]1O.[Na+].[Na+]", "note": "(stereo partly drawn) [DM1, methyl(disodium)-6-phosphate-D-manno-pyranoside]", "effect on vascularization of the chick embryos (pro- or antiangiogenic response)": "inhibitory effect on vascularization"}
